Laboratory results: patent publication US9328374B2, “Selective culture medium and method for detecting carbapenem-resistant bacteria in a test sample” (Institut National de la Sante et de la Recherche Medicale …, priority 2011, dated 2016)
Values joined by “and” are separate entries in the source; they are usually repeats but may differ in a detail not shown here. Identical values can stand only once.

How the values were obtained:
Experiment in all cases: MIC of imipenem, ertapenem and meropenem
E. coli = format: cell-based, Escherichia coli
S. typhimurium = format: cell-based
E. cloacae = format: cell-based, Enterobacter cloacae
C. koseri = format: cell-based
P. mirabilis = format: cell-based

C[C@@H](O)[C@H]1C(=O)N2C(C(=O)O)=C(S[C@@H]3CN[C@H](C(=O)N(C)C)C3)[C@H](C)[C@H]12 [MEM, meropenem]
MIC (E. coli; E. coli OM20, NDM-1 + TEM-1 + CTX-M-15): 8 µg/mL | MIC (E. coli; E. coli OM22, OXA-48 + TEM-1 + CTX-M-15): 0.25 µg/mL | MIC (E. coli; E. coli PSP (KPC-2)): 0.5 µg/mL | MIC (E. coli; E. coli PSP, KPC-2 + TEM-1 + OXA-1): 0.5 µg/mL | MIC (E. coli; E. coli RIC (NDM-1 + OXA-1 + OXA-10 + CMY-16)): 1 µg/mL | MIC (E. coli; E. coli RIC, NDM-1 + CMY-16 + OXA-1 + OXA-10): 1 µg/mL | MIC (E. coli; E. coli ROB (OXA-48)): 0.25 µg/mL | MIC (E. coli; E. coli ROB, OXA-48): 0.25 µg/mL | MIC (E. coli; E. coli SYD, CMY-2, non-carbapenemase producer): 0.012 µg/mL | MIC (E. coli; E. coli TWA, IMP-8 + SHV-12): 3 µg/mL | MIC (E. coli; E. coli ZAN, OXA-48 + TEM-1 + CTX-M-14): 0.75 µg/mL | MIC (E. coli; strain E. coli 1008, TEM-1 + CTX-M-1, non-carbapenemase producer): 0.016 µg/mL | MIC (E. coli; strain E. coli 1034, TEM-1 + SHV-38, non-carbapenemase producer): 0.016 µg/mL | MIC (E. coli; strain E. coli 1048, TEM-1 + SHV-2a, non-carbapenemase producer): 0.016 µg/mL | MIC (E. coli; strain E. coli 10121, CTX-M-2, non-carbapenemase producer): 0.016 µg/mL | MIC (E. coli; strain E. coli AME, OXA-48 + CTX-M-24): 0.19 µg/mL | MIC (E. coli; strain E. coli BON, OXA-48 + TEM-1 + CTX-M-24): 0.19 µg/mL | MIC (E. coli; strain E. coli ECA, ACC-1, non-carbapenemase producer): 0.012 µg/mL | MIC (E. coli; strain E. coli EVB, VEB-1, non-carbapenemase producer): 0.012 µg/mL | MIC (E. coli; strain E. coli FOR, CTX-M-15, non-carbapenemase producer): 0.012 µg/mL | MIC (E. coli; strain E. coli HB4, (OmpC-, OmpF-), non-carbapenemase producer): 0.25 µg/mL | MIC (E. coli; strain E. coli JAP, IMP-1): 0.5 µg/mL | MIC (E. coli; strain E. coli MAR, Overexpressed AmpC, non-carbapenemase producer): 2 µg/mL | MIC (E. coli; strain E. coli MET, Chromosome-encoded extended-spectrum cephalosporinase, non-carbapenemase producer): 0.012 µg/mL | MIC (E. coli; strain E. coli ROB, OXA-48): 0.25 µg/mL | MIC (E. coli; strain E. coli SYD, CMY-2, non-carbapenemase producer): 0.012 µg/mL | MIC (S. typhimurium; S. typhimurium 1081 (CTX-M-1)): 0.032 µg/mL | MIC (S. typhimurium; S. typhimurium 1081, CTX-M-1, non-carbapenemase producer): 0.032 µg/mL | MIC (S. typhimurium; strain S. typhimurium 1081, CTX-M-1, non-carbapenemase producer): 0.032 µg/mL | MIC (E. cloacae; E. cloacae 501, OXA-48 + TEM-1 + CTX-M-15): 1.5 µg/mL | MIC (E. cloacae; E. cloacae 1012, TEM-1 + SHV-12, non-carbapenemase producer): 0.016 µg/mL | MIC (E. cloacae; E. cloacae 1019, TEM-1, non-carbapenemase producer, overexpressed AmpC): 0.094 µg/mL | MIC (E. cloacae; E. cloacae 1027, TEM-1 + CTX-M-15, non-carbapenemase producer): 0.016 µg/mL | MIC (E. cloacae; E. cloacae 1072, TEM-1 + OXA-1, non-carbapenemase producer, overexpressed AmpC): 0.064 µg/mL | MIC (E. cloacae; E. cloacae 5434 (wild type)): 0.032 µg/mL | MIC (E. cloacae; E. cloacae 5434, (wild type), non-carbapenemase producer): 0.032 µg/mL | MIC (E. cloacae; E. cloacae 7725, (wild type), non-carbapenemase producer): 0.012 µg/mL | MIC (E. cloacae; E. cloacae 7746, (wild type), non-carbapenemase producer): 0.032 µg/mL | MIC (E. cloacae; E. cloacae 10111 (TEM-1 + CTX-M-15)): 0.094 µg/mL | MIC (E. cloacae; E. cloacae 10111, TEM-1 + CTX-M-15, non-carbapenemase producer, overexpressed AmpC): 0.094 µg/mL | MIC (E. cloacae; E. cloacae 1008029, VIM-1+ CTX-M-3): >32 µg/mL | MIC (E. cloacae; E. cloacae 1008079, IMP-1): >32 µg/mL | MIC (E. cloacae; E. cloacae 1008187, IMP-1 + CTX-M-15): 4 µg/mL | MIC (E. cloacae; E. cloacae (KPC-2)): 2 µg/mL | MIC (E. cloacae; E. cloacae ARF (overexpressed AmpC)): 0.12 µg/mL | MIC (E. cloacae; E. cloacae ARF, Overexpressed AmpC, non-carbapenemase producer): 0.12 µg/mL | MIC (E. cloacae; E. cloacae AZA (overexpressed AmpC)): 0.12 µg/mL | MIC (E. cloacae; E. cloacae AZA, Overexpressed AmpC, non-carbapenemase producer): 0.12 µg/mL | MIC (E. cloacae; E. cloacae BEU, OXA-48 + TEM-1 + CTX-M-15 + SHV-12): 0.5 µg/mL | MIC (E. cloacae; E. cloacae BLA (overexpressed AmpC)): 0.12 µg/mL | MIC (E. cloacae; E. cloacae BLA, Overexpressed AmpC, non-carbapenemase producer): 0.12 µg/mL | MIC (E. cloacae; E. cloacae CFVL, KPC-2 + TEM-3): 1 µg/mL | MIC (E. cloacae; E. cloacae CLO (CTX-M-15)): 0.12 µg/mL | MIC (E. cloacae; E. cloacae CLO, CTX-M-15, non-carbapenemase producer): 0.12 µg/mL | MIC (E. cloacae; E. cloacae CON (overexpressed AmpC)): 0.12 µg/mL | MIC (E. cloacae; E. cloacae CON, Overexpressed AmpC, non-carbapenemase producer): 0.25 µg/mL | MIC (E. cloacae; E. cloacae CVB (VEB-1)): 0.12 µg/mL | MIC (E. cloacae; E. cloacae CVB, VEB-1, non-carbapenemase producer): 0.12 µg/mL | MIC (E. cloacae; E. cloacae HMG, KPC-2 + TEM-1): 16 µg/mL | MIC (E. cloacae; E. cloacae HPTU (KPC-2 + TEM-1 + SHV-11)): 1.5 µg/mL | MIC (E. cloacae; E. cloacae HPTU, KPC-2 + TEM-1 + SHV-11): 1.5 µg/mL | MIC (E. cloacae; E. cloacae IR38 (NDM-1 + CTX-M-15)): 2 µg/mL | MIC (E. cloacae; E. cloacae IR38, NDM-1 + CTX-M-15): 2 µg/mL | MIC (E. cloacae; E. cloacae KAR, VIM-1+ SHV-70): 0.5 µg/mL | MIC (E. cloacae; E. cloacae TAW (IMP-8 + SHV-12)): 0.5 µg/mL | MIC (E. cloacae; E. cloacae TAW, IMP-8 + SHV-12): 0.5 µg/mL | MIC (E. cloacae; E. cloacae TUR (OXA-48 + SHV-5)): 0.5 µg/mL | MIC (E. cloacae; E. cloacae TUR, OXA-48 + SHV-5): 0.5 µg/mL | MIC (E. cloacae; E. cloacae TWA, IMP-8): 1 µg/mL | MIC (E. cloacae; strain E. cloacae 10111, TEM-1 + CTX-M-15, non-carbapenemase producer): 0.094 µg/mL | MIC (E. cloacae; strain E. cloacae BLA, Overexpressed AmpC, non-carbapenemase producer): 0.12 µg/mL | MIC (E. cloacae; strain E. cloacae CLO, CTX-M-15, non-carbapenemase producer): 0.12 µg/mL | MIC (E. cloacae; strain E. cloacae CON, Overexpressed AmpC, non-carbapenemase producer): 0.12 µg/mL | MIC (E. cloacae; strain E. cloacae CVB, VEB-1, non-carbapenemase producer): 0.12 µg/mL | MIC (E. cloacae; strain E. cloacae HPTU, KPC-2 + TEM-1 + SHV-11): 1.5 µg/mL | MIC (E. cloacae; strain E. cloacae TAW, IMP-8 + SHV-12): 0.5 µg/mL | MIC (E. cloacae; strain E. cloacae TUR, OXA-48 + SHV-5): 0.5 µg/mL | MIC (C. koseri; C. koseri ROU, OXA-48): 0.38 µg/mL | MIC (C. koseri; C. koseri VER (OXA-48)): 0.38 µg/mL | MIC (C. koseri; C. koseri VER, OXA-48): 0.38 µg/mL | MIC (C. koseri; strain C. koseri VER, OXA-48): 0.38 µg/mL | MIC (P. mirabilis; P. mirabilis 1031 (CTX-M-14 + TEM-1 + SHV-11)): 0.032 µg/mL | MIC (P. mirabilis; P. mirabilis 1031, CTX-M-14 + TEM-1 + SHV-11, non-carbapenemase producer): 0.032 µg/mL | MIC (P. mirabilis; P. mirabilis PMA (ACC-1)): 0.12 µg/mL and 0.064 µg/mL | MIC (P. mirabilis; P. mirabilis PMA, ACC-1, non-carbapenemase producer): 0.064 µg/mL
